Holding throughout (assay type): cell-based
For experiment [1], the target named is T1, S1P1 (Homo sapiens, UniProt P21453). As to the kind of experiment: Tango β-arrestin Recruitment Assay in U2OS cells (Assay 2b). Set-up: linker with TEV protease (N1a) cleavage site (C). The note with it: Tango β-arrestin Recruitment Assay. From the text: (§1) For the Tango™ β-arrestin recruitment assay, the cytoplasmic C-terminus of S1P1 is tethered to the tTA transcriptional activator with a linker that contains a cleavage site for the N1a protease from tobacco etch virus (TEV protease). The C-terminus of the human β-arrestin2 protein is fused to TEV protease. Binding of an agonist recruits the β-arrestin-TEV fusion protein to the receptor resulting in cleavage of the linker and release of tTA to enter the nucleus and subsequently activate a tTA-dependent luciferase reporter gene.
Alternatively, U2OS cells expressing the reporter gene and S1P1 (Invitrogen) were added to the wells of a 384-well white opaque bottom assay plate (PerkinElmer) at […] per well. The cells were serum starved for 48 h in Freestyle medium (Invitrogen). Test compounds were tested at maximum concentrations of 1 μM for the agonist assay. Compounds were diluted in DMSO (10 concentration points, 3-fold each) and added to the assay plate at a 1% final DMSO concentration. The efficacy control was 1 μM S1P (Avanti). For each compound, there were duplicate assay plates and each assay plate had duplicate wells per concentration point. The plate was incubated overnight at 37° C. The GeneBLAzer β-lactamase assay reagent (Invitrogen) was added and the plates were incubated for an additional 2 h at room temperature. Fluorescence was measured using an EnVision plate reader (PerkinElmer, Waltham, Mass.) at an excitation wavelength of 409 nm and emission wavelengths of 460 nm and 530 nm. The emission intensity at each wavelength was background subtracted against wells containing medium only and the F460 nm/F530 nm ratio determined for each concentration of the test compounds. Percent activity was calculated as [(test compound ratio−DMSO ratio)/(positive control ratio−DMSO ratio)*100], where the positive control and DMSO ratios are from cells incubated with the efficacy control 1 μM S1P and 1% DMSO, respectively. The percent activities were plotted against compound concentration to determine EC50 using XLFit (IDBS).
(§2) Assay 1 is the CNG cAMP Assay as described in Biological Example 1. Assay 2a and 2b are the Tango™ β-arrestin Recruitment Assay in HEK293 and U2OS cells, respectively, as described in Biological Example 2. Assay 3a is the hS1P1R GTPγS Binding Assay as described in Biological Example 3. Assay 3b is the GTP-Eu Binding Assay as described in Biological Example 3. EC50's were measured unless otherwise noted. […] In the table, “nt” means the Compound was not tested and “no” means the compound was tested but had no measurable activity under the assay conditions employed.
For orientation: Arrestin recruitment assays detect the binding of arrestin to an activated receptor.
Target sequence in this assay (P21453 whole entry, the tested form may be a part): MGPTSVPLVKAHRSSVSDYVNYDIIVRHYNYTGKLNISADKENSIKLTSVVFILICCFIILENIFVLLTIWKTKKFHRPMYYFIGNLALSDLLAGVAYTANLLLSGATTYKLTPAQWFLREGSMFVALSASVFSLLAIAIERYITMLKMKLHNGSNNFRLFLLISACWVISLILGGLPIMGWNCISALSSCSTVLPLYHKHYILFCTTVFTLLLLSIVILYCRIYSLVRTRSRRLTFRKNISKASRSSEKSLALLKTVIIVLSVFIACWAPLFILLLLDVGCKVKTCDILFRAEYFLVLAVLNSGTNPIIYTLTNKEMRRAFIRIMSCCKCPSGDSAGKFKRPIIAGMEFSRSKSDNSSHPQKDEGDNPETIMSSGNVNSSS
Target sequence in this assay (P32121 whole entry partner, the tested form may be a part): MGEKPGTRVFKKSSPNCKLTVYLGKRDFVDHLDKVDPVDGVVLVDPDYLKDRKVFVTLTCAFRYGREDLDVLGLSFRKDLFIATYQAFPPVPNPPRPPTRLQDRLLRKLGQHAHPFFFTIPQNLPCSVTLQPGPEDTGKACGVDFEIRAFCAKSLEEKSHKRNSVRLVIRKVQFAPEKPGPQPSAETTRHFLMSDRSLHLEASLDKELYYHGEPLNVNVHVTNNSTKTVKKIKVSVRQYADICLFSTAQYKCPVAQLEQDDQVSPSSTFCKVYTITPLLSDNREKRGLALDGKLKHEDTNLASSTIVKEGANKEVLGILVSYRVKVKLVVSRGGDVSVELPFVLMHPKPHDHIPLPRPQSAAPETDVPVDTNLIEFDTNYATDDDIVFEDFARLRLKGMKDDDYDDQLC

In experiment [2] the target is T1, S1P1. In words: Tango β-arrestin Recruitment Assay in HEK293 cells (Assay 2a). The following applies: Tango β-arrestin Recruitment Assay, read-out: Assay 2a EC50. Set-up: linker with TEV protease (N1a) cleavage site (C); host or cells: HEK293, transiently transfected.
Excerpt: as §1
Frozen HEK293 cells transiently transfected with receptor cDNAs for S1P1 (Invitrogen) were thawed and suspended in 10 mL of Pro293a-CDM culture medium (Invitrogen) supplemented with 4 mM L-Glutamine (Invitrogen), 1× Pen/Strep (100 units/mL penicillin and 100 μg/mL streptomycin, Invitrogen) and 0.1% fatty acid free BSA (Sigma-Aldrich). Cells were added to the wells of a 384-well white opaque bottom assay plate (PerkinElmer) at 3,000-6,000 cells per well and the plate was incubated for approximately 4 h in a 37° C. incubator. Test compounds were tested at maximum concentrations of 10 μM for the agonist assays. Compounds were diluted in DMSO (10 concentration points, 3-fold each) and added to the assay plate at a 1% final DMSO concentration. For each compound, there were duplicate assay plates and each assay plate had duplicate wells per concentration point. The plate was incubated at 37° C. for 30 min. The efficacy control was 5 μM S1P (Avanti). Following agonist addition, the assay plates were incubated in a 37° C. incubator for 16-18 h. Luciferase assay reagent was added and luminescence measured in an EnVision plate reader (PerkinElmer). To determine agonist activity, percent activity was calculated as [(test compound−background)/(positive control−background)* 100], where background is the luminescence of the DMSO alone control and the positive control is the luminescence from cells incubated with the efficacy control 5 μM S1P. The percent activities were plotted against compound concentration to determine EC50 using XLFit (IDBS).
as §2
Target sequence in this assay (P21453 whole entry, the tested form may be a part): as the sequence (P21453 whole entry, the tested form may be a part) above
Target sequence in this assay (P32121 whole entry partner, the tested form may be a part): as the sequence (P32121 whole entry partner, the tested form may be a part) above

Experiment [3] has as its target T1, S1P1. As to the kind of experiment: CNG cAMP Assay (Assay 1). Set-up: host or cells: HEK293 cells expressing the CNG channel. The following applies: read-out: Assay 1 EC50. An outline of the steps:
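cAMP-gated CNG membrane-potential read-out (350/590 nm, T90/T0 ratio) in S1P1/CNG HEK293 cells after 90 min with compound plus NECA 500 nM, S1P 10 nM (EC95), Ro 20-1724 25 μM. Ten 3-fold points from 10 μM, 1.8% DMSO; percent activity vs NECA-only control gives EC50.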
Target sequence in this assay (P21453 whole entry, the tested form may be a part): as the sequence (P21453 whole entry, the tested form may be a part) above

The text below walks through data of US20100160369A1, “S1P1 Agonists and Methods of Making And Using” (EXELIXIS, INC., priority 2008, published 2010).

With `CC(O)COc1cc(Cl)c(-c2nnc(-c3cn4cc(C(F)(F)F)cc(Cl)c4n3)o2)cc1Cl` (stereo not shown) [Entry 4], the concentration for a half-maximal effect (EC50) on S1P1 [1] (read-out: Assay 2b EC50) is at most 100 nM.

As for `O=C(O)CC(=O)COc1cc(Cl)c(-c2noc(-c3cn4cc(C(F)(F)F)cc(Cl)c4n3)n2)cc1Cl` [Entry 5], on S1P1 [1] (read-out: Assay 2b EC50), the half-maximal effective concentration (EC50) was at most 100 nM.

In the case of `O=P(O)(O)OC(CO)COc1cc(Cl)c(-c2noc(-c3cn4cc(C(F)(F)F)cc(Cl)c4n3)n2)cc1Cl` (stereo not shown) [Entry 9], the EC50 at S1P1 [1] (read-out: Assay 2b EC50) is at most 100 nM.

As for `CS(=O)(=O)COc1cc(Cl)c(-c2noc(-c3cn4cc(C(F)(F)F)cc(Cl)c4n3)n2)cc1Cl` [Entry 12], the concentration for a half-maximal effect (EC50) on S1P1 [1] (read-out: Assay 2b EC50) was at most 100 nM.

Consider `CC(O)COc1cc(Cl)c(-c2nnc(-c3cn4cc(C(F)(F)F)cc(Cl)c4n3)s2)cc1Cl` (stereo not shown) [Entry 13], for which, on S1P1 [1] (read-out: Assay 2b EC50), the concentration giving a half-maximal response (EC50) was at most 100 nM.

`C[C@@H](COc1cc(Cl)c(-c2noc(-c3cn4cc(C(F)(F)F)cc(Cl)c4n3)n2)cc1Cl)OP(=O)(O)O` [Entry 14]: on S1P1 [1] (read-out: Assay 2b EC50), the EC50 was at most 100 nM.

As for `NC(COc1cc(Cl)c(-c2noc(-c3cn4cc(C(F)(F)F)cc(Cl)c4n3)n2)cc1Cl)COP(=O)(O)O` (stereo not shown) [Entry 15], the EC50 on S1P1 [1] (read-out: Assay 2b EC50) was at most 100 nM.

With `O=C(COc1cc(Cl)c(-c2noc(-c3cn4cc(C(F)(F)F)cc(Cl)c4n3)n2)cc1Cl)C(F)(F)F` [Entry 18], the EC50 at S1P1 [1] (read-out: Assay 2b EC50) was at most 100 nM.

Consider `CC(C)(CO)Oc1cc(Cl)c(-c2noc(-c3cn4cc(C(F)(F)F)cc(Cl)c4n3)n2)cc1Cl` [Entry 26], for which, on S1P1 [1] (relative EC50 was measured (footnote 1), read-out: Assay 2b Relative EC50), the EC50 was in the range of 100 to 500 nM.

For `OCC(O)CNc1cc(Cl)c(-c2noc(-c3cn4cc(C(F)(F)F)cc(Cl)c4n3)n2)cc1Cl` (stereo not shown) [Entry 29], at S1P1 [1] (read-out: Assay 2b EC50), the EC50 was at most 100 nM.

For the compound `OCCNc1cc(Cl)c(-c2noc(-c3cn4cc(C(F)(F)F)cc(Cl)c4n3)n2)cc1Cl` [Entry 30], the EC50 on S1P1 [1] (read-out: Assay 2b EC50) is at most 100 nM.

With `O=C(CO)COc1cc(Cl)c(-c2noc(-c3cn4cc(C(F)(F)F)cc(Cl)c4n3)n2)cc1Cl` [Entry 34], the EC50 on S1P1 [1] (read-out: Assay 2b EC50) is at most 100 nM.

On to `N[C@H](CO)COc1cc(Cl)c(-c2nnc(-c3cn4cc(C(F)(F)F)ccc4n3)s2)cc1F` [Entry 43], for which the EC50 at S1P1 [1] (read-out: Assay 2b EC50) is at most 100 nM.

`CC(N)(CO)COc1cc(Cl)c(-c2nnc(-c3cn4cc(C(F)(F)F)ccc4n3)s2)cc1F` (stereo not shown) [Entry 44]: at S1P1 [1] (read-out: Assay 2b EC50), the EC50 is at most 100 nM.

For the compound `COc1ccc2nc(-c3nnc(-c4cc(F)c(OCC(N)CO)cc4Cl)s3)cn2c1` (stereo not shown) [Entry 45], the concentration for a half-maximal effect (EC50) on S1P1 [1] (read-out: Assay 2b EC50) was at most 100 nM.

For `CC(N)(CO)COc1cc(Cl)c(-c2nnc(-c3cn4cc(C(F)(F)F)cc(Cl)c4n3)s2)cc1F` (stereo not shown) [Entry 46], on S1P1 [1] (read-out: Assay 2b EC50), the EC50 is at most 100 nM.

Take `O=C(COc1cc(Cl)c(-c2noc(-c3cn4cc(C(F)(F)F)cc(Cl)c4n3)n2)cc1Cl)COP(=O)(O)O` [Entry 51]: the EC50 at S1P1 [1] (read-out: Assay 2b EC50) is at most 100 nM.

As to `O=P(O)(O)COc1cc(Cl)c(-c2noc(-c3cn4cc(C(F)(F)F)cc(Cl)c4n3)n2)cc1Cl` [Entry 52], at S1P1 [1] (read-out: Assay 2b EC50), the EC50 is at most 100 nM.

Regarding `O=P(O)(O)OCC(O)COc1cc(Cl)c(-c2noc(-c3cn4cc(C(F)(F)F)cc(Cl)c4n3)n2)cc1Cl` (stereo not shown) [Entry 53], the EC50 at S1P1 [1] (read-out: Assay 2b EC50) was at most 100 nM.

`OCC(CO)NCCOc1cc(Cl)c(-c2noc(-c3cn4cc(C(F)(F)F)cc(Cl)c4n3)n2)cc1Cl` [Entry 65]: the EC50 at S1P1 [1] (read-out: Assay 2b EC50) was at most 100 nM.

For the compound `O=C(O)CCc1ccc(-c2nc(-c3cn4cc(C(F)(F)F)cc(Cl)c4n3)no2)cc1Cl` [Example 235, 3-(2-chloro-4-{3-[8-chloro-6-(trifluoromethyl)imidazo[1,2-a]pyridin-2-yl]-1,2,4-oxadiazol-5-yl}phenyl)propanoic acid], the EC50 is 100 to 500 nM on S1P1 [2] and at most 100 nM at S1P1 [3].

Regarding `OCCOc1ccc(-c2nnc(-c3cn4cc(C(F)(F)F)cc(Cl)c4n3)s2)c(Cl)c1` [Example 243, 2-[(3-chloro-4-{5-[8-chloro-6-(trifluoromethyl)imidazo[1,2-a]pyridin-2-yl]-1,3,4-thiadiazol-2-yl}phenyl)oxy]ethanol], the concentration for a half-maximal effect (EC50) on S1P1 [2] is 100 to 500 nM; on S1P1 [3] it was at most 100 nM.

As to `O=C(O)CCOc1ccc(-c2noc(-c3cn4cc(C(F)(F)F)cc(Cl)c4n3)n2)c(Cl)c1` [Example 255, 3-[(3-chloro-4-{5-[8-chloro-6-(trifluoromethyl)imidazo[1,2-a]pyridin-2-yl]-1,2,4-oxadiazol-3-yl}phenyl)oxy]propanoic acid], the concentration giving a half-maximal response (EC50) at S1P1 [2] is 100 to 500 nM; at S1P1 [3] it was at most 100 nM.

With `CC(CC(=O)O)c1ccc(-c2noc(-c3cn4cc(C(F)(F)F)cc(Br)c4n3)n2)c(Cl)c1` (stereo not shown) [Example 266, 3-(4-{5-[8-bromo-6-(trifluoromethyl)imidazo[1,2-a]pyridin-2-yl]-1,2,4-oxadiazol-3-yl}-3-chlorophenyl)butanoic acid], the values for the EC50 on S1P1 [2] and at S1P1 [3] were 100 to 500 nM and at most 100 nM, respectively.

For the compound `N#CC(CC(=O)O)c1ccc(-c2noc(-c3cn4cc(C(F)(F)F)cc(Cl)c4n3)n2)c(Cl)c1` (stereo not shown) [Example 267, 3-(3-chloro-4-{5-[8-chloro-6-(trifluoromethyl)imidazo[1,2-a]pyridin-2-yl]-1,2,4-oxadiazol-3-yl}phenyl)-3-cyanopropanoic acid], the EC50 on S1P1 [2] is 100 to 500 nM; on S1P1 [3], at most 100 nM.

For the compound `OCCC(O)c1ccc(-c2noc(-c3cn4cc(C(F)(F)F)cc(Cl)c4n3)n2)c(Cl)c1` (stereo not shown) [Example 272, 1-(3-chloro-4-{5-[8-chloro-6-(trifluoromethyl)imidazo[1,2-a]pyridin-2-yl]-1,2,4-oxadiazol-3-yl}phenyl)propane-1,3-diol], the concentration giving a half-maximal response (EC50) is 100 to 500 nM at S1P1 [2] and at most 100 nM on S1P1 [3].

As for `Fc1ccc(-c2noc(-c3cn4cc(C(F)(F)F)cc(Cl)c4n3)n2)c(Cl)c1` [Example 274, 8-chloro-2-[3-(2-chloro-4-fluorophenyl)-1,2,4-oxadiazol-5-yl]-6-(trifluoromethyl)imidazo[1,2-a]pyridine], the half-maximal effective concentration (EC50) on S1P1 [2] lay in the range of 500 to 1000 nM; on S1P1 [3], 100 to 500 nM.

As for `CS(=O)(=O)Cc1ccc(-c2noc(-c3cn4cc(C(F)(F)F)cc(Cl)c4n3)n2)c(Cl)c1` [Example 275, 8-chloro-2-(3-{2-chloro-4-[(methylsulfonyl)methyl]phenyl}-1,2,4-oxadiazol-5-yl)-6-(trifluoromethyl)imidazo[1,2-a]pyridine], the results for the EC50 at S1P1 [2] and at S1P1 [3] were 100 to 500 nM and at most 100 nM, respectively.

Regarding `O=C(O)CCc1cc(Cl)c(-c2nnc(-c3cn4cc(C(F)(F)F)cc(Cl)c4n3)o2)cc1F` [Example 282, 3-(5-chloro-4-{5-[8-chloro-6-(trifluoromethyl)imidazo[1,2-a]pyridin-2-yl]-1,3,4-oxadiazol-2-yl}-2-fluorophenyl)propanoic acid], the concentration for a half-maximal effect (EC50) on S1P1 [2] and on S1P1 [3] was at most 100 nM in each case.

With `O=C(O)CCc1c(Cl)cc(-c2nc(-c3cn4cc(C(F)(F)F)cc(Cl)c4n3)no2)cc1Cl` [Example 314, 3-(2,6-dichloro-4-{3-[8-chloro-6-(trifluoromethyl)imidazo[1,2-a]pyridin-2-yl]-1,2,4-oxadiazol-5-yl}phenyl)propanoic acid], the EC50 at S1P1 [2] and on S1P1 [3] was at most 100 nM throughout.

The EC50 is the concentration giving half of the maximal effect.
